Results published in ChEMBL document CHEMBL5252618, “Discovery and Biosynthesis of Imidazolium Antibiotics from the Probiotic Bacillus licheniformis” (J Nat Prod, 2023).
Several values for one entry are separate records, joined by “and”; a condition that tells them apart may be missing. Equal entries are not always repeated. Activity calls are given as the source filed them. The rule behind the calls is not given here.

Assays:
[1] = test system: Acinetobacter baumannii; assay: Antibacterial activity against Acinetobacter baumannii assessed as bacterial growth inhibition incubated for overnight by visual analysis; type: functional
[2] = test system: Escherichia coli; assay: Antibacterial activity against Escherichia coli ATCC 25922 assessed as bacterial growth inhibition incubated for 18 hrs; type: functional
[3] = test system: Brevibacterium epidermidis; assay: Antibacterial activity against Brevibacterium epidermidis ATCC35514 assessed as bacterial growth inhibition incubated for overnight by visual analysis; type: functional
[4] = test system: HT-1080; assay: Cytotoxicity against human HT-1080 cells at 31.25 to 500 uM incubated for 24 hrs by CellTiter96 aqueous one solution based assay; type: functional, cell-based; conditions: dose 31.25-500 µM
[5] = test system: HCT-116; assay: Cytotoxicity against human HCT-116 cells at 31.25 to 500 uM incubated for 24 hrs by CellTiter96 aqueous one solution based assay; type: functional, cell-based; conditions: dose 31.25-500 µM
[6] = Cytotoxicity against human Chang liver cells at 31.25 to 500 uM incubated for 24 hrs by CellTiter96 aqueous one solution based assay; type: toxicity, cell-based; conditions: dose 31.25-500 µM
[7] = test system: Lacticaseibacillus paracasei; assay: Antibacterial activity against Lacticaseibacillus paracasei subsp.paracasei ATCC25302 assessed as bacterial growth inhibition incubated for overnight by visual analysis; type: functional; conditions: subsp. paracasei ATCC 25302
[8] = test system: WI-38; assay: Cytotoxicity against human WI-38 cells at 31.25 to 500 uM incubated for 24 hrs by CellTiter96 aqueous one solution based assay; type: toxicity, cell-based; conditions: wi-38, 24 h, dose 31.25-500 µM
[9] = test system: NIH3T3; assay: Cytotoxicity against mouse NIH3T3 cells at 31.25 to 500 uM incubated for 24 hrs by CellTiter96 aqueous one solution based assay; type: toxicity, cell-based; conditions: nih3t3, 24 h, dose 31.25-500 µM
[10] = test system: Acinetobacter baumannii; assay: Antibacterial activity against Acinetobacter baumannii harboring LPS-deficient mutant lpxC assessed as bacterial growth inhibition incubated for overnight by visual analysis; type: functional
[11] = test system: Staphylococcus aureus; assay: Antibacterial activity against methicillin-resistant Staphylococcus aureus ATCC 33591 assessed as bacterial growth inhibition incubated for 18 hrs; type: functional
[12] = test system: Staphylococcus aureus; assay: Antibacterial activity against methicillin-resistant Staphylococcus aureus USA300 assessed as bacterial growth inhibition incubated for overnight by visual analysis; type: functional
[13] = test system: A549; assay: Cytotoxicity against human A549 cells at 31.25 to 500 uM incubated for 24 hrs by CellTiter96 aqueous one solution based assay; type: functional, cell-based; conditions: dose 31.25-500 µM
[14] = test system: HepG2; assay: Cytotoxicity against human HepG2 cells at 31.25 to 500 uM incubated for 24 hrs by CellTiter96 aqueous one solution based assay; type: functional, cell-based; conditions: dose 31.25-500 µM
[15] = test system: Escherichia coli; assay: Antibacterial activity against Escherichia coli MG1655 assessed as bacterial growth inhibition incubated for overnight by visual analysis; type: functional
[16] = test system: Bacillus subtilis; assay: Antibacterial activity against Bacillus subtilis NRS-231 assessed as bacterial growth inhibition incubated for 18 hrs; type: functional
[17] = test system: Escherichia coli; assay: Synergistic antibacterial activity against wild type Escherichia coli MG1655 assessed as potentiation of colistin-induced antibacterial effect by measuring colistin MIC at 0.32 to 84 ug/ml incubated for 24 hrs by checker board assay (reference value: 2.5 ug/ml); type: functional; conditions: dose 0.32-84 µg/ml
[18] = test system: Acinetobacter baumannii; assay: Synergistic antibacterial activity against Acinetobacter baumannii assessed as potentiation of colistin-induced antibacterial effect by measuring […] in colistin MIC at 0.32 to 84 ug/ml incubated for 24 hrs by checker board assay relative to control; type: functional; conditions: dose 0.32-84 µg/ml
[19] = test system: Escherichia coli; assay: Synergistic antibacterial activity against wild type Escherichia coli MG1655 assessed as potentiation of colistin-induced antibacterial effect by measuring […] in colistin MIC at 0.32 to 84 ug/ml incubated for 24 hrs by checker board assay relative to control; type: functional; conditions: dose 0.32-84 µg/ml
[20] = test system: Acinetobacter baumannii; assay: Synergistic antibacterial activity against Acinetobacter baumannii assessed as potentiation of colistin-induced antibacterial effect by measuring colistin MIC at 0.32 to 84 ug/ml incubated for 24 hrs by checker board assay (reference value: 0.2 ug/ml); type: functional; conditions: dose 0.32-84 µg/ml
[21] = test system: RAW264.7; assay: Antiinflammatory activity in mouse RAW 264.7 cells assessed as inhibition of LPS-induced NO production at 10 uM pretreated for 1 hr followed by LPS stimulation and further incubated for 24 hrs by griess reagent based assay; type: functional, cell-based; conditions: time 25.0 hrs

Structure (SMILES)	MIC [1]	MIC [3]	Activity [4]	Activity [5]	Activity [6]	MIC [7]	Activity [8]	Activity [9]	MIC [10]	MIC [12]	Activity [13]	Activity [14]	MIC [15]	inhibition [21]	other results
Cc1c(C)[n+](CCc2c[nH]c3ccccc23)c(C)n1CCc1c[nH]c2ccccc12	> 100 µM	> 100 µM	inactive	inactive	Non-Toxic	20 µg/mL and 50 µM	Non-Toxic	Non-Toxic	40 µg/mL and 100 µM	20 µg/mL and 50 µM	inactive	inactive	> 100 µM		MIC [2]: > 50 µM; MIC [11]: > 50 µM; MIC [16]: > 50 µM
CCCc1n(CCc2c[nH]c3ccccc23)c(C)c(C)[n+]1CCc1c[nH]c2ccccc12	> 100 µM	1.3 µg/mL and 3.13 µM	inactive	inactive	Non-Toxic	0.7 µg/mL and 1.56 µM	Non-Toxic	Non-Toxic	2.6 µg/mL and 6.25 µM	1.3 µg/mL and 3.13 µM	inactive	inactive	> 100 µM		MIC [17]: 0.313 µg/mL; fold change (FC) [18]: 4; fold change (FC) [19]: 8; MIC [20]: 0.05 µg/mL
Cc1c(C)[n+](CCc2c[nH]c3ccccc23)c(CC(C)C)n1CCc1c[nH]c2ccccc12	> 100 µM	> 100 µM	inactive	inactive	Non-Toxic	22 µg/mL and 50 µM	Non-Toxic	Non-Toxic	22 µg/mL and 50 µM	> 100 µM	inactive	inactive	> 100 µM	inactive	
CC(=O)NCCc1ccccc1			inactive	inactive	Non-Toxic		Non-Toxic	Non-Toxic			inactive	inactive			
CCCC(=O)C(C)NCCc1c[nH]c2ccccc12 (centres undefined)			inactive	inactive	Non-Toxic		Non-Toxic	Non-Toxic			inactive	inactive			
CCCc1n(CCC(C)C)c(C)c(C)[n+]1CCc1c[nH]c2ccccc12	> 100 µM	> 100 µM	inactive	inactive	Non-Toxic	9 µg/mL and 25 µM	Non-Toxic	Non-Toxic	9 µg/mL and 25 µM	> 100 µM	inactive	inactive	> 100 µM	Active	
CCCc1c(C)[n+](CCc2c[nH]c3ccccc23)c(CCC)n1CCc1c[nH]c2ccccc12	> 100 µM	11 µg/mL and 25 µM	Active	Active	Non-Toxic	6 µg/mL and 12.5 µM	Non-Toxic	Non-Toxic	11 µg/mL and 25 µM	11 µg/mL and 25 µM	Active	Active	> 100 µM	Active	
